For 34 compounds, IC50 results are on record in patent US12692230B2, “(1 h-indol-5-yl)acrylamide derivatives as inhibitors of TEAD proteins and the hippo-YAP1/TAZ signaling cascade for the treatment of cancer” (Sanofi, priority 2020, dated 2026).

The structures appear in SMILES notation.

This assay relates to TEAD responsive promoter element (8XGTIIC-Luciferase; YAP1-TEAD and TAZ-TEAD activity). The experiment in a line: TEAD-Luciferase reporter assay. In kind it is cell-based. As to conditions: Homo sapiens; luciferase activity in tumor cell lines with stable integration of the 8XGTIIC-Luciferase construct; 10 doses between 1 and 10000 nM, 48 hrs. The source says: TEAD-Luciferase Reporter Assay
Luciferase-based gene reporter assays were used, employing the TEAD responsive promoter element that are stably integrated to different human tumor cell lines in order to monitor YAP1-TEAD and TAZ-TEAD activity and to study YAP1/TAZ-TEAD activity modulation by small molecule compounds. Luciferase-based gene reporter assays employing the GAPDH promoter element and stably integrated to different human tumor cell lines are used as counter screen control cell lines.
Tumor cell lines with stable integration of the 8XGTIIC-Luciferase construct (Dupont et al., Nature 2011) or the GAPDH-Luciferase control plasmid, are seeded in culture medium in 96-well plates at a density of 8000 cells/well. Following an overnight incubation in a 37° C., 5% CO2 growth chamber, cells are treated with compounds described above at 10 doses ranging between 1 and 10000 nM for 48 hrs. After compound incubation, cells are lysed with Bright-Glo Luciferase Assay System (Promega E2620) and luciferase activity is measured using a luminescent plate reader.
The inhibitory activity of the compounds with respect to luciferase activity is given by the concentration which inhibits 50% of activity of non-treated cells. IC50s are determined with a nonlinear regression model on XLfit software analysis (IDBS, UK).
In general terms: In a reporter assay the amount or activity of a reporter protein is the signal.
With `C=CC(=O)Nc1ccc2c(ccn2-c2ccc(C(F)(F)F)nc2)c1` [Example 45, N-(1-(6-(trifluoromethyl)pyridin-3-yl)-1H-indol-5-yl)acrylamide], the IC50 (commonly the concentration that inhibits the measured activity by half) worked out at 106 nM.
For `C=CC(=O)Nc1ccc2c(ccn2Cc2cc(F)cc(F)c2)c1` [Example 52, N-(1-(3,5-difluorobenzyl)-1H-indol-5-yl)acrylamide] the value was 41 nM.
For `C=CC(=O)Nc1ccc2c(c1)c(CO)cn2-c1ccc(C(F)(F)F)cc1` [Example 82, N-(3-(hydroxymethyl)-1-(4-(trifluoromethyl)phenyl)-1H-indol-5-yl)acrylamide] the value was 158 nM; for `C=CC(=O)Nc1cccc2ccn(Cc3cccc(C(F)(F)F)c3)c12` [Example 58, N-(1-(3-(trifluoromethyl)benzyl)-1H-indol-7-yl)acrylamide], 2010 nM; for `C=CC(=O)Nc1ccc2c(ccn2CC2CCOCC2)c1` [Example 23, N-(1-((tetrahydro-2H-pyran-4-yl)methyl)-1H-indol-5-yl)acrylamide], 369 nM.
`C=CC(=O)N(C)c1ccc2c(c1)cc(C)n2-c1ccc(C(F)(F)F)cc1` [Example 71, N-methyl-N-[2-methyl-1-[4-(trifluoromethyl)phenyl]indol-5-yl]acrylamide] registered an IC50 of 24 nM.
As for `C=CC(=O)Nc1ccc2c(ccn2C2CCC(F)(F)CC2)c1` [Example 39, N-(1-(4,4-difluorocyclohexyl)-1H-indol-5-yl)acrylamide], the figure is 84 nM; as for `C=CC(=O)Nc1ccc2c(ccn2-c2ccnc(C(F)(F)F)c2)c1` [Example 68, N-(1-(2-(trifluoromethyl)pyridin-4-yl)-1H-indol-5-yl)acrylamide], 1090 nM; as for `C=CC(=O)Nc1ccc2c(ccn2CC2CCC(F)(F)C2)c1` (stereo not shown) [Example 29, N-(1-((3,3-difluorocyclopentyl)methyl)-1H-indol-5-yl)acrylamide], 43 nM.
The compound `C=CC(=O)Nc1ccc2c(ccn2Cc2ccc(C(F)(F)F)o2)c1` [Example 55, N-(1-((5-(trifluoromethyl)furan-2-yl)methyl)-1H-indol-5-yl)acrylamide] displayed an IC50 of 185 nM.
Compound `C=CC(=O)Nc1ccc2c(c1)c(COC)cn2Cc1cccc(C(F)(F)F)c1` [Example 60, N-(3-(methoxymethyl)-1-(3-(trifluoromethyl)benzyl)-1H-indol-5-yl)acrylamide] had an IC50 of 88 nM.
As for `CN(C)C/C=C/C(=O)Nc1cccc2c1ccn2Cc1cccc(C(F)(F)F)c1` [Example 20, (E)-4-(dimethylamino)-N-(1-(3-(trifluoromethyl)benzyl)-1H-indol-4-yl)but-2-enamide], the figure is 7760 nM.
As for `C=CC(=O)Nc1ccc2c(ccn2Cc2ccccc2)c1` [Example 18, N-(1-Benzyl-1H-indol-5-yl)-acrylamide], the figure is 963 nM; as for `C=CC(=O)Nc1ccc2c(ccn2-c2ccc(C(F)(F)F)cc2C)c1` [Example 65, N-(1-(2-methyl-4-(trifluoromethyl)phenyl)-1H-indol-5-yl)acrylamide], 59 nM; as for `C=CC(=O)Nc1ccc2c(ccn2-c2cc(F)cc(F)c2)c1` [Example 66, N-(1-(3,5-difluorophenyl)-1H-indol-5-yl)acrylamide], 1850 nM.
As for `C=CC(=O)Nc1ccc2c(c1)c(C(N)=O)cn2Cc1cccc(C(F)(F)F)c1` [Example 83, 5-Acrylamido-1-(3-(trifluoromethyl)benzyl)-1H-indole-3-carboxamide], the figure is 1790 nM; as for `C=CC(=O)Nc1ccc2c(ccn2-c2cccc(S(C)(=O)=O)c2)c1` [Example 50, N-(1-(3-(methylsulfonyl)phenyl)-1H-indol-5-yl)acrylamide], 4680 nM; as for `C=CC(=O)N(C)c1ccc2c(ccn2Cc2cccc(C(F)(F)F)c2)c1` [Example 2, N-methyl-N-(1-(3-(trifluoromethyl)benzyl)-1H-indol-5-yl)acrylamide], 1090 nM.
Compound `C=CC(=O)Nc1ccc2c(ccn2-c2cccnc2)c1` [Example 47, N-(1-(pyridin-3-yl)-1H-indol-5-yl)acrylamide] had an IC50 of more than 10000 nM.
Compound `C=CC(=O)Nc1cccc2c1ccn2Cc1cccc(C(F)(F)F)c1` [Example 19, N-(1-(3-(trifluoromethyl)benzyl)-1H-indol-4-yl)acrylamide] showed an IC50 of 195 nM.
For `C=CC(=O)Nc1ccc2c(ccn2[C@H]2CC[C@@H](C(F)(F)F)CC2)c1` [Example 34, Cis-N-[1-[4-(trifluoromethyl)cyclohexyl]indol-5-yl]acrylamide] the value was not below 10000 nM.
For `C=CC(=O)Nc1ccc2c(ccn2-c2ccc(C(F)(F)F)cn2)c1` [Example 46, N-(1-(5-(trifluoromethyl)pyridin-2-yl)-1H-indol-5-yl)acrylamide] the value was more than 10000 nM; for `C=CC(=O)Nc1ccc2c(ccn2CC2CC3(C2)CC3(F)F)c1` (stereo not shown) [Example 25, N-(1-((1,1-difluorospiro[2.3]hexan-5-yl)methyl)-1H-indol-5-yl)acrylamide], 1000 nM.
For `C=CC(=O)Nc1ccc2c(ccn2Cc2ccc(-c3ccccc3)cc2)c1` [Example 30, N-(1-([1,1′-biphenyl]-4-ylmethyl)-1H-indol-5-yl)acrylamide] the value was not below 10000 nM.
`C=CC(=O)Nc1ccc2c(ccn2Cc2cscn2)c1` [Example 56, N-(1-(thiazol-4-ylmethyl)-1H-indol-5-yl)acrylamide] yielded an IC50 not below 10000 nM.
For `C=CC(=O)Nc1ccc2c(ccn2Cc2cccc(I)c2)c1` [Example 9, N-(1-(3-iodobenzyl)-1H-indol-5-yl)acrylamide] the value was 143 nM.
The compound `C=CC(=O)Nc1ccc2c(c1)c(C)cn2-c1ccc(C(F)(F)F)cc1` [Example 69, N-(3-methyl-1-(4-(trifluoromethyl)phenyl)-1H-indol-5-yl)acrylamide] had an IC50 of 9 nM.
For `C=CC(=O)Nc1ccc2c(ccn2-c2ccc(F)cc2)c1` [Example 48, N-(1-(4-fluorophenyl)-1H-indol-5-yl)acrylamide] the value was more than 10000 nM.
As for `C=CC(=O)Nc1ccc2c(ccn2Cc2ccc(S(F)(F)(F)(F)F)cc2)c1` [Example 6, N-(1-(4-(pentafluoro-λ6-sulfanyl)benzyl)-1H-indol-5-yl)acrylamide], the figure is 4040 nM; as for `C=CC(=O)Nc1ccc2c(ccn2Cc2ccc([Si](C)(C)C)cc2)c1` [Example 42, N-(1-(4-(trimethylsilyl)benzyl)-1H-indol-5-yl)acrylamide], 211 nM.
For `C=CC(=O)Nc1cc2ccn(-c3ccc(C(F)(F)F)cc3)c2cc1F` [Example 73, N-(6-fluoro-1-(4-(trifluoromethyl)phenyl)-1H-indol-5-yl)acrylamide] the value was 244 nM; for `C=CC(=O)Nc1ccc2c(ccn2CC2CCN(c3ccc(C(F)(F)F)cc3)CC2)c1` [Example 35, N-(1-((1-(4-(trifluoromethyl)phenyl)piperidin-4-yl)methyl)-1H-indol-5-yl)acrylamide], 2330 nM; for `C=CC(=O)Nc1ccc2c(ccn2Cc2cccc(C3CC3)c2)c1` [Example 15, N-(1-(3-cyclopropylbenzyl)-1H-indol-5-yl)acrylamide], 496 nM.
Compound `C=CC(=O)Nc1ccc2c(ccn2-c2cncc(F)c2)c1` [Example 67, N-(1-(5-fluoropyridin-3-yl)-1H-indol-5-yl)acrylamide] returned an IC50 of 8540 nM.
